In US20250345292A1, “COMBINATION OF ALBUTEROL AND BUDESONIDE FOR THE TREATMENT OF ASTHMA” (priority 2022, published 2025):

Experiments:
[1] = tested on: patients with mild-to-moderate asthma; assay: Phase 3 clinical trial, albuterol-budesonide combination vs. mono-components, four times daily for 12 weeks; format: in vivo, human; conditions: for Change from baseline in FEV1 AUC0-6 over 12 weeks, LSM / Change from baseline in trough FEV1 over 12 weeks, LSM: four times daily
Method: A Phase 3 clinical study evaluated contributions of the mono-components albuterol and budesonide to albuterol/budesonide combination efficacy in patients with mild-to-moderate asthma ≥4 years. Patients≥12 years were randomized 1:1:1:1:1 to four-times-daily albuterol/budesonide 180/160 or 180/80 μg, albuterol 180 μg, budesonide 160 μg or placebo for 12 weeks; patients 4-11 years were not included in this analysis set.
In the study, 1001 patients with mild-to-moderate asthma were randomized 1:1:1:1:1 to ABD 180/160 μg or 180/80 μg, albuterol (A) 180 μg, budesonide (B) 160 μg, or placebo, all four times daily (QID), for 12 weeks. […] Secondary endpoints included time to onset, as measured by 15% improvement in FEV1 within 30 minutes on Day 1, and duration of effect, and Asthma Control Questionnaire-7 (ACQ-7) responder (≥0.5-point reduction from baseline) analysis at Week 12.

[2] = tested on: patients with uncontrolled moderate-to-severe asthma; assay: Phase 3 clinical trial, albuterol-budesonide FDC vs. albuterol alone: safety endpoints (adverse events)
Method: (§1) Safety endpoints (adverse events [AEs] and serious adverse events [SAEs]) were assessed from date of informed consent/assent through the safety follow-up.
(§2) All randomized patients who received any amount of study drug, classified by the study medication they were randomized to, were included in the efficacy analyses comparing albuterol-budesonide 180/80-μg with albuterol. […] All patients receiving any amount of randomized study medication, and classified by the study medication they actually received, were included for all safety analyses.

[3] = tested on: patients with uncontrolled moderate-to-severe asthma; assay: Phase 3 clinical trial, as-needed albuterol-budesonide fixed dose combination vs. albuterol alone: efficacy and study medication use; format: in vivo, human; conditions: for % of patients with a severe exacerbation / number of patients with a severe exacerbation: as-needed use
[4] = tested on: patients with uncontrolled moderate-to-severe asthma; conditions: human, in vivo, 180 μg
Method: as §1, §2

[5] = vs placebo, full analysis set ≥12 years
[6] = AE in ≥2% of patients in any group
[7] = treatment-related, investigator-assessed AE
[8] = comparison 180/80-μg versus albuterol, all patients
[9] = comparison 180/160-μg versus albuterol, excludes children
[10] = comparison albuterol-budesonide 180/80-μg versus albuterol, all patients
[11] = comparison albuterol-budesonide 180/160-μg versus albuterol, excludes children (albuterol n=1,014)

CCCC1O[C@@H]2C[C@H]3[C@@H]4CCC5=CC(=O)C=C[C@]5(C)[C@H]4[C@@H](O)C[C@]3(C)[C@]2(C(=O)CO)O1 (mixture of isomers) [budesonide 160 μg, (RS)-11β,21-dihydroxy-16α,17α-(butylidenebis(oxy)) pregna-1,4-diene-3,20-dione]
Change from baseline in FEV1 AUC0-6 over 12 weeks, LSM ([1]; full analysis set ≥12 years): 178.0 mL
Change from baseline in trough FEV1 over 12 weeks, LSM ([1]; full analysis set ≥12 years): 108.9 vs mL
Change from baseline in trough FEV1 over 12 weeks, difference in LSM [1, 5]: 73.3 mL

CC(C)(C)NCC(O)c1ccc(O)c(CO)c1 (stereo not shown) [albuterol 180-μg, 4-(2-(tert-butylamino)-1-hydroxyethyl)-2-(hydroxymethyl) phenol]
Asthma, % [2, 6]: 3.3%
Back pain, % [2, 6]: 1.9%
Bronchitis, % [2, 6]: 2.6%
COVID-19, % [2, 6]: 4.4%
Headache, % [2, 6]: 4.7%
Hypertension, % [2, 6]: 2.5%
Influenza, % [2, 6]: 1.3%
Nasopharyngitis, % [2, 6]: 5.1%
Sinusitis, % [2, 6]: 2.3%
Upper respiratory tract infection, % [2, 6]: 2.5%
Patients with any AE, % ([2]; Table 1): 46.4%
frequency of AEs leading to discontinuation of treatment ([2]; human, in vivo): 0.9%
frequency of inhaled glucocorticoid-associated adverse events ([2]; human, in vivo): 1.3%
deaths (number) ([2]; no deaths considered treatment-related): 1
frequency of any AE ([2]; randomized treatment groups): 46.4%
dysphonia [2, 7]: 0.4%
oral candidiasis [2, 7]: 0.5%
oropharyngeal candidiasis [2, 7]: 0.1%
Annualized severe exacerbation rate [3, 8]: 0.61
Annualized total systemic glucocorticoid exposure (prednisone equivalents), median [3, 8]: 0.0 mg/year
Annualized severe exacerbation rate [3, 9]: 0.59
Annualized total systemic glucocorticoid exposure (prednisone equivalents), median [3, 9]: 0.0 mg/year
% of patients with a severe exacerbation [3, 10]: 26.1%
number of patients with a severe exacerbation [3, 10]: 276
% of patients with a severe exacerbation [3, 11]: 26.2%
number of patients with a severe exacerbation [3, 11]: 266
severe exacerbations requiring ED or urgent care visits (number) ([3]; per treatment arm): 66
severe exacerbations requiring hospitalization (number) ([3]; per treatment arm): 17
responders (onset of effect) ([1]; Day 1, 15% improvement in FEV1 within 30 minutes): 42.9%
Median time to onset ([1]; Day 1, 15% improvement in FEV1 within 30 minutes, responders): 9.5 min
Median duration of effect ([1]; Day 1, responders): 168.2 min
percentages of ACQ-7 responders ([1]; Week 12, ≥0.5-point reduction from baseline): 47.2%
bronchodilation with repeated use over 1-4 weeks ([1]; compared with placebo): no difference
Change from baseline in FEV1 AUC0-6 over 12 weeks, LSM ([1]; full analysis set ≥12 years): 157.2 vs mL
Change from baseline in trough FEV1 over 12 weeks, LSM ([1]; full analysis set ≥12 years): 2.7 mL
Change from baseline in FEV1 AUC0-6 over 12 weeks, difference in LSM [1, 5]: 60.5 mL
frequency of SAEs, including deaths [4]: 4.5%
